According to patent US9801880B2, “Use of kinase inhibitors” (BerGenBio AS, priority 2013, dated 2017):
pIC50: −log10 of the molar value.

What was measured:
Abl = Abl (Homo sapiens, UniProt P00519); experiment: KinaseProfiler kinase activity assay; type: biochemical; conditions: Abl wild-type; ATP at Km
From the text: (§1) Detailed assay methodologies can be found in the relevant references cited herein, or in the KinaseProfiler Service Assay Protocols (v54, 2011) available from EMD Millipore (www.emdmillipore.com), or from the KinomeScan website (www.kinomescan.com), as appropriate. (For a more detailed description of KINOMEscan's assay technology, see: Fabian et al. A small molecule-kinase interaction map for clinical kinase inhibitors. Nat. Biotechnol. 23, 329-336 (2005)). A summary is provided below.
(§2) KinaseProfiler™ assays (EMD Millipore Corp. Billerica, Mass., USA) are […] with purified or partially-purified human kinases. Most of the KinaseProfiler™ assays are conducted in 20 mM MOPS, 1 mM EDTA, 0.01% Brij-35, 5% Glycerol, 0.1% b-mercaptoethanol, 1 mg/mL BSA. The assay involves the transfer of ^32P from γ-^32P-ATP to the target peptide, followed by washing and trapping of the labeled peptide on a filter. The concentration of γ-^32P-ATP used was at the established Km for ATP.

Abl(Y253F) = Abl(Y253F) (Homo sapiens, UniProt P00519, Y253F); experiment: KinaseProfiler kinase activity assay; type: biochemical; parameters: purchased EMD Millipore Corp. (KinaseProfiler service); conditions: ATP at Km
From the text: as §1, §2

Abl(H396P) = Abl(H396P) (Homo sapiens, UniProt P00519, H396P); experiment: KinaseProfiler kinase activity assay; type: biochemical; parameters: purchased EMD Millipore Corp. (KinaseProfiler service); conditions: ATP at Km
From the text: as §1, §2

Abl(M351T) = Abl(M351T) (Homo sapiens, UniProt P00519, M351T); experiment: KinaseProfiler kinase activity assay; type: biochemical; parameters: purchased EMD Millipore Corp. (KinaseProfiler service); conditions: ATP at Km
From the text: as §1, §2

Abl (T315I) = Abl (T315I) (Homo sapiens, UniProt P00519, T315I); experiment: KinaseProfiler kinase activity assay; type: biochemical; parameters: purchased EMD Millipore Corp. (KinaseProfiler service); conditions: ATP at Km
From the text: as §1, §2

Abl(Q252H) = Abl(Q252H) (Homo sapiens, UniProt P00519, Q252H); experiment: KinaseProfiler kinase activity assay; type: biochemical; parameters: purchased EMD Millipore Corp. (KinaseProfiler service); conditions: ATP at Km
From the text: as §1, §2

Tyro3 = Tyro3 (Homo sapiens, UniProt Q06418); experiment: KinaseProfiler kinase activity assay; type: biochemical; parameters: purchased EMD Millipore Corp. (KinaseProfiler service); conditions: ATP at Km
From the text: as §1, §2

Ysk4 = target: T1, Ysk4 (Homo sapiens, UniProt Q56UN5); experiment: KinomeScan competition binding assay
T1 construct: purchased DiscoveRx Corporation (KinomeScan service)
From the text: as §1
(§3) KinomeScan™ assays (DiscoveRx Corporation, San Diego, Calif., USA) are active-site-directed competition binding assays. […] The amount of kinase captured in test versus control samples is determined by using a qPCR method that detects the associated DNA label on each kinase molecule. Dissociation constants (Kd) for test compound-kinase interactions are calculated by measuring the amount of kinase captured on the solid support as a function of the test compound concentration.

Flt3 (D835H) = target: T2, Flt3 (D835H) (Homo sapiens, UniProt P36888, D835H); experiment: KinomeScan competition binding assay
T2 construct: purchased DiscoveRx Corporation (KinomeScan service)
From the text: as §1, §3

Ret (M918T) = target: T3, Ret (M918T) (Homo sapiens, UniProt P07949, M918T); experiment: KinomeScan competition binding assay
T3 construct: purchased DiscoveRx Corporation (KinomeScan service)
From the text: as §1, §3

[1] = tested on: Ba/F3 cells (WT, FLT3 WT, FLT3-ITD, D835Y); experiment: Annexin V-PI apoptosis/cell death assay, four Ba/F3 cell lines; type: cell-based, Murine
From the text: Murine pro-B lymphocyte line Ba/F3 wild type (Ba/F3 WT), and Ba/F3 lines stably transduced with expression vectors that encoded wild-type human FLT3 (Ba/F3 FLT3 WT cells) or human FLT3 containing an ITD mutation (Ba/F3-ITD cells) or D835Y (Ba/F3 D835Y cells) point mutations, which lead to constitutively functional activation of the protein, were obtained from Bjørn Tore Gjertsen (Department of Clinical Science, Hematology Section, University of Bergen, Bergen, Norway). Ba/F3 WT, Ba/F3 FLT3 WT and Ba/F3 835Y cells were maintained in RPMI-1640 medium, containing 10% fetal calf serum (FCS, HyClone, Logan, UT), 2 mM L-glutamine and 50 U/mL penicillin-streptomycin (Sigma-Aldrich, Inc, St Louis, Mo., USA), and 10% WEHI-3B conditioned medium as a source of murine interleukin-3 (mIL-3). […]
Quantification of apoptotic and necrotic cells was determined by measuring externalization of phosphatidylserine with annexin V, conjugated to Alexa® Fluor 647 (Invitrogen, Molecular Probes, OR, USA) and using propidium iodide (PI; Sigma-Aldrich) as a dead-cell counterstain. […] After drug treatment cells were stained according the manufacturer's protocol, and subsequently analysed on an Accuri C6 flow cytometer (Becton Dickinson Immunocytometry Systems, San Jose, Calif., USA). […] The percent viable cells are expressed as percentage of untreated cells, performed in a single experiment.

c-Kit (D816H) = c-Kit (D816H) (Homo sapiens, UniProt P10721, D816H); experiment: KinaseProfiler kinase activity assay; type: biochemical; parameters: purchased EMD Millipore Corp. (KinaseProfiler service)
Description: A summary is provided below.
as §2

[2] = tested on: Ba/F3 cells (WT, FLT3 WT, FLT3 ITD, FLT3 D835Y); experiment: WST-1 and 3H-Thymidine incorporation cell proliferation assays, all Ba/F3 lines; type: cell-based, Murine; conditions: by 3 μM; regardless of cell line
From the text: Murine pro-B lymphocyte line Ba/F3 wild type (Ba/F3 WT), and Ba/F3 lines stably transduced with expression vectors that encoded wild-type human FLT3 (Ba/F3 FLT3 WT cells) or human FLT3 containing an ITD mutation (Ba/F3-ITD cells) or D835Y (Ba/F3 D835Y cells) point mutations, which lead to constitutively functional activation of the protein, were obtained from Bjørn Tore Gjertsen (Department of Clinical Science, Hematology Section, University of Bergen, Bergen, Norway). […]
Proliferation of cells was assessed using the tetrazolium salt WST-1 that is cleaved to chromogenic formazan dye by mitochondrial dehydrogenases in viable cells. […] The absorbance of the samples was measured by Spectramax Plus 384 Spectrophotometer (Molecular Devices Corp., Sunnyvale, Calif., USA) and the percentage of proliferation was calculated by using the following formula: (Arbitrary units (AU) of treated sample−AU of background control)/(AU of untreated sample−AU of background control).
Following 18 hours incubation, the DNA was harvested and radioactivity was assessed by liquid scintillation counting (Packard Microplate Scintillation and Luminescence counter, Perkin Elmer Life and Analytical Science, Inc., Waltham, USA).

T1 sequence (Q56UN5 whole entry): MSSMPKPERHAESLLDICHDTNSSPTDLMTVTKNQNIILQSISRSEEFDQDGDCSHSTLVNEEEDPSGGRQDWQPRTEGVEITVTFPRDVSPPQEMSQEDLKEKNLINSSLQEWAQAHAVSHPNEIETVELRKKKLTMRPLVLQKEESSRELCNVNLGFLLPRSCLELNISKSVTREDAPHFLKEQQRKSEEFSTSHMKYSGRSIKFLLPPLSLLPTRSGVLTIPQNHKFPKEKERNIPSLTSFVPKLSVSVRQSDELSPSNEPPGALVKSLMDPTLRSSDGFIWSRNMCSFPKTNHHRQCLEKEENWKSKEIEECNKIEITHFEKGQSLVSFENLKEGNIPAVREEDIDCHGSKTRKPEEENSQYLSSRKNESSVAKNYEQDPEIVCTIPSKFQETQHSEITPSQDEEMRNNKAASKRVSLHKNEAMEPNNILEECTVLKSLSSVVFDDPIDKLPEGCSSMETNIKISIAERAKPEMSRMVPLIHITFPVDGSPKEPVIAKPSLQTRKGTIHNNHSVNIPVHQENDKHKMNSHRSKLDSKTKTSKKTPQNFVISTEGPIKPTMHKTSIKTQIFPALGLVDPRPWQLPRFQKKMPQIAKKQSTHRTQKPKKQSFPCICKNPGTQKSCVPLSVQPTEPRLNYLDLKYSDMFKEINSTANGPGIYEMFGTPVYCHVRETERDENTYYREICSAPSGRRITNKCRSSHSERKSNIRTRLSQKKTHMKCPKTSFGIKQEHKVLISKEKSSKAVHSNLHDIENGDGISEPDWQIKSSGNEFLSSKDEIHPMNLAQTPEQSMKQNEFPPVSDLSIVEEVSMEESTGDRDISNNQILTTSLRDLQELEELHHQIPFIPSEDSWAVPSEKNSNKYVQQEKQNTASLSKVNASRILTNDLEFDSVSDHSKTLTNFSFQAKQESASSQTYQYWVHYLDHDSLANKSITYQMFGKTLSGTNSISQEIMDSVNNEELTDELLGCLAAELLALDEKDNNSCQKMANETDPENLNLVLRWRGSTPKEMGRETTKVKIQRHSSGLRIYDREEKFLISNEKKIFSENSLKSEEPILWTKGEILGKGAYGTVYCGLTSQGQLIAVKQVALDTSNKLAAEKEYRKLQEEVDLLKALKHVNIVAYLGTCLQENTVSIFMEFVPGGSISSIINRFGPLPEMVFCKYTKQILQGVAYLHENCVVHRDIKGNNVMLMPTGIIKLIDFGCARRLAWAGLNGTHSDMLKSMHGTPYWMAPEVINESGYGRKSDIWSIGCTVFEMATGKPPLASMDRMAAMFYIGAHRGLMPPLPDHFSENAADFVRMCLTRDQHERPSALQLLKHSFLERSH
Chain of c-Kit (D816H) (P10721 26-976 D816H): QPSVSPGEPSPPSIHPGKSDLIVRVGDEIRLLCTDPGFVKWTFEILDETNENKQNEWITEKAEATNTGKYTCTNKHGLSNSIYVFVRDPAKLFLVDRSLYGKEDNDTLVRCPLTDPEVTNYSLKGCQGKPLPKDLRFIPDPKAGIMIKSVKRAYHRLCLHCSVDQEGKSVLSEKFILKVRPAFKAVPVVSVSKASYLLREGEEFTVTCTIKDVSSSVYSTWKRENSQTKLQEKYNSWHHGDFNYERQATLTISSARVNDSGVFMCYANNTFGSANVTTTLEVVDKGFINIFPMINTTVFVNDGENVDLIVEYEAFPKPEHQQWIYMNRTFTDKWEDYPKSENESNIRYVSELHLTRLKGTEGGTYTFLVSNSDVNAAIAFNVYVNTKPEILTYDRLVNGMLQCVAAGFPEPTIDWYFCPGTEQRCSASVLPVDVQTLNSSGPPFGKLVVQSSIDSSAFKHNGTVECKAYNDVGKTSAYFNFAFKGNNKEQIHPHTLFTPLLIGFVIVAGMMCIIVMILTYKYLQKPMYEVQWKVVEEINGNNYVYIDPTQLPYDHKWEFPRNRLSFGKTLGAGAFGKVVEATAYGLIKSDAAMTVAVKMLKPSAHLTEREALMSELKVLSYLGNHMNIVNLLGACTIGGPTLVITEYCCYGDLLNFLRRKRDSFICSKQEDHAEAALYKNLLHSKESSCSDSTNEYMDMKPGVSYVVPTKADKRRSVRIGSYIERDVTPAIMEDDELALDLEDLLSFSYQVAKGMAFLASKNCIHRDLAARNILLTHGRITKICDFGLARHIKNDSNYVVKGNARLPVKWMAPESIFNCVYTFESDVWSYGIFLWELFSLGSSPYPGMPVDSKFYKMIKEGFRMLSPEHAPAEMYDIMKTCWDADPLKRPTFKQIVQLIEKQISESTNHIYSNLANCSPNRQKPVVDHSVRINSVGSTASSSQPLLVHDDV
T3 sequence (P07949 29-1114 M918T): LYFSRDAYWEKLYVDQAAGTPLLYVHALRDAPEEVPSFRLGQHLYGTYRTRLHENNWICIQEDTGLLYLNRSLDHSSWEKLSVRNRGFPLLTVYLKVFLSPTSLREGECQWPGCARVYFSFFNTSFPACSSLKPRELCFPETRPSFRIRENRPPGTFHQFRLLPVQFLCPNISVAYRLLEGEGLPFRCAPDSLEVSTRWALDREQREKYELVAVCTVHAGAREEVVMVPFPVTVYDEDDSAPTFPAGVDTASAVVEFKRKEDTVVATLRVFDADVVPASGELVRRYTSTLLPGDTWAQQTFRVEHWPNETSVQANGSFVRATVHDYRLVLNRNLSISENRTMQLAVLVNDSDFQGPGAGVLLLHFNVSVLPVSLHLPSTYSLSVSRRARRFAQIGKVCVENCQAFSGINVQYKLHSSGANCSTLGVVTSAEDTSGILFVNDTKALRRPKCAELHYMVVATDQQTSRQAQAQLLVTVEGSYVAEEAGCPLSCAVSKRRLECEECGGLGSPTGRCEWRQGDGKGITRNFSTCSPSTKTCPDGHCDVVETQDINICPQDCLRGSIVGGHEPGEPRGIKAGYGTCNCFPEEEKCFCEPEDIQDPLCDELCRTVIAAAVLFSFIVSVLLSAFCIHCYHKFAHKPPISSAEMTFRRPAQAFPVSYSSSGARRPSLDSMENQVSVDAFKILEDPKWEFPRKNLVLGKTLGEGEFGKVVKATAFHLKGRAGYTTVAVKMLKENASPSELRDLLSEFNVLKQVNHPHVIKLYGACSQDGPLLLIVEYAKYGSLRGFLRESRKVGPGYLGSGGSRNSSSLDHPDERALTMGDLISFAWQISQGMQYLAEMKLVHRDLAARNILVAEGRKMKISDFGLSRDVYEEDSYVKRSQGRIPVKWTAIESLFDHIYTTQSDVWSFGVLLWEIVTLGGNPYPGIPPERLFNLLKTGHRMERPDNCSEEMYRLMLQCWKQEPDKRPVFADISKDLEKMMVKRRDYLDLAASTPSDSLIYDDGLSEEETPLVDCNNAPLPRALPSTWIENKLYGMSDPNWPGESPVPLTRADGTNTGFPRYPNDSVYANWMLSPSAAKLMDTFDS
Chain of Tyro3 (Q06418 41-890): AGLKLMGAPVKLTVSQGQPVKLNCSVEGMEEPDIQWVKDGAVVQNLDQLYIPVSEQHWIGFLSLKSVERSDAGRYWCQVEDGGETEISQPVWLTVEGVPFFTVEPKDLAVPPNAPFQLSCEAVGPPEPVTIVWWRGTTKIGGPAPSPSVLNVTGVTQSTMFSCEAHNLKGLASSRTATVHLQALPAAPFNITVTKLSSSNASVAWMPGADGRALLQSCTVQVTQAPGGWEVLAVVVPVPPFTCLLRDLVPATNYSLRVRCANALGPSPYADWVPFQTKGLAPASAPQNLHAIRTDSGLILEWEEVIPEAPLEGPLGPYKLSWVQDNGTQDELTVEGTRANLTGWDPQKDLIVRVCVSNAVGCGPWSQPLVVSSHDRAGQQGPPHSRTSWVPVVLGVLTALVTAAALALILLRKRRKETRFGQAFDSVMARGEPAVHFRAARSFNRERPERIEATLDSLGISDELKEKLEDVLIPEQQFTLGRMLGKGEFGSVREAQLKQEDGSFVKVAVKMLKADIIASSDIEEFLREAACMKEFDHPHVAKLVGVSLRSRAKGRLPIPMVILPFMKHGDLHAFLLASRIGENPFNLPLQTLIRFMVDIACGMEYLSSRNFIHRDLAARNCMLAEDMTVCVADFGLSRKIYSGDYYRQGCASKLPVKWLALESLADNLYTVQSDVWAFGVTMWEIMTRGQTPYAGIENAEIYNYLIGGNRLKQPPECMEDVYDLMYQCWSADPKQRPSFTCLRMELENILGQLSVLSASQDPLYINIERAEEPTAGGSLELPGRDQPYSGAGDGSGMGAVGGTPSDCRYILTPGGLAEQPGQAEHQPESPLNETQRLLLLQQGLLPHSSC

Work on `Nc1nc(Nc2ccc3c(c2)CC[C@@H](N2CCCC2)CC3)nn1-c1cc2c(nn1)-c1ccccc1CCC2` [Compound A, 1-(6,7-dihydro-5H-benzo[6,7]cyclohepta[1,2-c]pyridazine-3-yl)-N^3-(7-(S)-(pyrrolidin-1-yl)-6,7,8,9-tetrahydro-5H-benzo[7]annulene-2-yl)-1H-1,2,4-triazole-3,5-diamine] yielded an IC50 (Abl) of 51 nM, an IC50 (Abl(Y253F)) of 26 nM and an IC50 (Abl(H396P)) of 22 nM. The IC50 (Abl(M351T)) was 32 nM, the IC50 (Abl (T315I)) was 4 nM and the IC50 (Abl(Q252H)) was 16 nM. For the same compound, the IC50 (Tyro3) was 413 nM, the Kd (Ysk4) was 1.6 nM and the Kd (Flt3 (D835H)) was 8.4 nM. The Kd (Ret (M918T)) was 30 nM, the therapeutic window ([1]; investigated Ba/F3 cell lines, 48 hours) was 0.5 to 3 µM and the “induction of apoptosis at higher doses” value ([1]; ≧3 μM, all cell lines regardless of FLT3 status) was “massive induction of apoptosis”. For the same compound, the pIC50 (c-Kit (D816H)) was 8.10 and the “cell death in proliferation assays” value [2] was “all cells are dead”.
